Reference: ChEMBL document CHEMBL1151637, “A flavone with antiinflammatory activity from the roots of Rhus undulata” (1984)
Calls of active or inactive are those of the source. No cut-off for these calls is given here.

Legend:
Rattus norvegicus [1] = assay: Antiinflammatory activity against rat assessed as inhibition of carrageenan-induced edema; assay type: functional
Rattus norvegicus [2] = assay: Antiinflammatory activity against rat assessed as inhibition of carrageenan-induced edema at 75 mg/kg; assay type: functional

| SMILES | Activity (Rattus norvegicus [1]) | inhibition in vivo at 75 mg/kg (Rattus norvegicus [2]) [%] | ED25 (Rattus norvegicus [1]) [mg/kg] |
| --- | --- | --- | --- |
| C[C@@H]1O[C@@H](O[C@H]2[C@H](Oc3cc(O)c4c(c3)O[C@H](c3ccc(O)cc3)CC4=O)O[C@H](CO)[C@@H](O)[C@@H]2O)[C@H](O)[C@H](O)[C@H]1O | inactive | – | – |
| COc1ccc(-c2cc(=O)c3c(O)cc(OC)cc3o2)cc1 [APIGENIN DIMETHYLETHER] | – | 25 | 75 |
| COc1ccc(-c2cc(=O)c3c(OC)c(OC)c(OC)c(OC)c3o2)cc1OC [NOBILETIN] | – | – | 20 |
| CCCCC1C(=O)N(c2ccccc2)N(c2ccccc2)C1=O [PHENYLBUTAZONE] | – | 81 | – |
| C[C@]12CCC(=O)C=C1CC[C@@H]1[C@@H]2[C@@H](O)C[C@@]2(C)[C@H]1CC[C@]2(O)C(=O)COP(=O)(O)O [HYDROCORTISONE PHOSPHORIC ACID] | – | – | 13.5 |
